Experimental data reported in paper PMC12656566, “Toxicokinetic Characterization of MDM Hydantoin via Stable Metabolite DMH: Population Modeling for Predicting Dermal Formaldehyde Formation” (Toxics, 2025).
“Also recorded” adds a separate entry of the source. Like-named read-outs stand apart in the source and are kept apart here.

Key:
[1] = Toxicokinetics after transdermal application of gel containing 2% MDMH or DMH (plasma, non-compartmental analysis); type: in vivo; settings: rats; for bioavailability: plasma, DMH, TD application of 2% DMH gel (10.7 mg/kg) vs IV, read-out: Absolute bioavailability
Procedure: An API 4000 LC-MS/MS system (Applied Biosystems/MDS Sciex, Foster City, CA, USA) coupled with an Agilent 1100 HPLC (Agilent Technologies, Santa Clara, CA, USA) was used for determination of MDMH and DMH in rat plasma. The analytes were separated on a Synergi Fusion-RP 80 Å (150 × 2.0 mm, i.d., 4 µm;) with a Security Guard™ Cartridge AJ0-7556 (Phenomenex, Torrance, CA, USA), and the column oven temperature was maintained at 30 °C. An isocratic solvent system of distilled water and methanol (80:20, v/v) was used with a runtime of 7 min. The injection volume was 10 µL, and the flow rate was maintained at 0.2 mL/min.
For plasma sample preparation, formic acid was immediately added to blood samples upon collection to achieve a final concentration of 0.5% to prevent potential enzymatic degradation of MDMH, and all sample preparation procedures were conducted at ≤4 °C to minimize temperature-dependent decomposition of the analytes. For analysis, 50 μL of internal standard solution and 100 μL of methanol containing 0.5% formic acid (as precipitating solvent) were added to 50 μL of plasma, followed by vortex-mixing for 2 min. After centrifugation at 21,206× g for 10 min, 40 μL of supernatant was mixed with 160 μL of 0.5% formic acid in distilled water, and 10 μL was injected into the LC-MS/MS system.
All animal care and experiments were conducted to evaluate the toxicokinetics of MDMH and DMH according to the Guidelines for the Care and Use of Animal approved by the Ethics Committee for Treatment of Laboratory Animal at Daegu Catholic University (CUD-2019-020). To evaluate the toxicokinetics of MDMH and DMH in rats after intravenous injection (IV) or transdermal application (TD). Male Sprague-Dawley rats (9 weeks, body weight 260–310 g) (Hyochang Science Co., Daegu, Republic of Korea) were kept in plastic cages and fed regularly with water and feed. Rats were acclimated for a minimum of 1 week prior to the experiment under conditions keeping a 12 h light-dark cycle, a temperature of 23 ± 2 °C, and a relative humidity of 50 ± 10%. The rats were cannulated using polyethylene tubing (0.58 mm i.d., 0.96 mm o.d., Natsume, Tokyo, Japan) in the jugular vein after intraperitoneal injection at a dose of 0.9 mL/kg of Zoletil 50 (Virbac, Carros, France).
The transdermal application study was performed according to the “Organization for Economic Cooperation and Development guidelines for the in vivo skin absorption test”. Rats were anesthetized using inhaled isoflurane, and the back area of 6 × 6 cm^2 was removed using an electric clipper (808, Daito Electric Co., Osaka, Japan) 12 h before administration. The clipped skin of the rat was wiped with acetone without damaging the stratum corneum, and a resting period was allowed just before the study.
For TD application, a gel corresponding to approximately 5 mg/cm^2 was applied to an area of 5 × 5 cm^2 among the depilated areas. The doses of MDMH and DMH for the transdermal application study were 10.9 and 10.7 mg/kg on average, respectively. Although the regulatory limit for MDMH in cosmetics is 0.2%, a higher concentration (2%) was employed to ensure adequate systemic exposure and plasma concentrations suitable for accurate toxicokinetic characterization of these rapidly metabolized compounds. To prevent loss of the compounds due to volatilization and grooming, the application on the back site was adhered with gauze and pads. Blood samples were collected via the jugular vein in the MDMH application group at 0, 30 min, and 1, 2, 3, 4, 5, 6, 7, 8, 10, 12, and 24 h (13 points/head), and in the DMH application group at 0, 30 min, and 1, 2, 3, 4, 6, 8, 10, 12, and 24 h (11 points/head). Plasma samples were harvested by centrifugation of obtained blood for 10 min at 4000× g, and stored at −20 °C until analysis.
The toxicokinetic parameters were calculated by standard non-compartmental analysis using the non-linear least squares regression program Phoenix™ WinNonlin® 6.1 (Pharsight, Cary, NC, USA). […]

[2] = Stability of MDMH and DMH in rat plasma and processed samples; type: in vitro ADME; settings: n = 5; for Processed sample stability: autosampler at 4 °C for 24 h; for Short-term stability / Freeze–thaw stability / Long-term stability: rat plasma; for Short-term stability: room temperature (25 °C) for 4 h; for Freeze–thaw stability: three freeze–thaw cycles; for Long-term stability: −20 °C for 4 weeks
Procedure: Short-term stability of MDMH and DMH in rat plasma was evaluated at room temperature for 4 h. Long-term stability was assessed following storage at −20 °C for 4 weeks. Freeze–thaw stability was determined after three freeze–thaw cycles. Additionally, processed sample stability was evaluated in the autosampler at 4 °C for 24 h. Stability was considered acceptable when the mean deviation from theoretical concentrations was within ±15%.
Stability studies were conducted using five replicates of low and high quality control samples under various analytical conditions, with results shown in Table 3. Short-term stability was evaluated at room temperature (25 °C) for 4 h, showing mean recoveries within acceptable limits for both analytes. Long-term stability was assessed following storage at −20 °C for 4 weeks, with recoveries remaining within ±15% of theoretical concentrations. Freeze–thaw stability was evaluated after three freeze–thaw cycles. Processed sample stability in the autosampler at 4 °C for 24 h was also within acceptable ranges.

[3] = male, Sprague-Dawley, rat, topical or ocular, DMH in plasma after TD application of gel containing 2% DMH (10.7 mg/kg), n = 5

| Processed sample stability ([2]; High QC) [%] | Processed sample stability ([2]; Low QC) [%] | Short-term stability ([2]; High QC) [%] | Short-term stability ([2]; Low QC) [%] | Freeze–thaw stability ([2]; High QC) [%] | Freeze–thaw stability ([2]; Low QC) [%] | Long-term stability ([2]; High QC) [%] | Long-term stability ([2]; Low QC) [%] | Structure (SMILES) | bioavailability ([1]; male, Sprague-Dawley, rat, topical or ocular, n = 5) [%] | bioavailability ([1]; male, Sprague-Dawley, rat, topical, n = 5) [%] | AUC(0-t) [1, 3] [ng·h/mL] | Cmax [1, 3] [ng/mL] | Tmax [1, 3] [h] | half-life [1, 3] [h] | AUC(0-inf) ([1]; male, Sprague-Dawley, rat, topical or ocular, DMH in plasma after TD application of gel containing 2% DMH (10.7 mg/kg), n = 5, read-out: AUCinfinity) [ng·h/mL] | parent compound plasma concentrations after transdermal application ([1]; MDMH in plasma after MDMH gel TD application, throughout the sampling period) | Fm to DMH (fraction metabolized) ([1]; ratio of DMH exposure after MDMH gel TD (10.9 mg/kg) to that after DMH gel TD) [%] |
| --- | --- | --- | --- | --- | --- | --- | --- | --- | --- | --- | --- | --- | --- | --- | --- | --- | --- |
| 113.2 ± 1.5 | 90.9 ± 6.9 | 101.0 ± 1.9 | 102.0 ± 1.4 | 93.2 ± 5.8 | 89.3 ± 3.8 | 112.0 ± 3.2 | 106.2 ± 4.3 | CC1(C)NC(=O)NC1=O [DMH, 5,5-dimethylhydantoin] | 101 ± 18 | 101 ± 18 | 40510 ± 50 | 6460 ± 1690 | 2 ± 1.73 | 5.36 ± 2.18 | 51500 ± 5530 | – | – |
| 112.0 ± 3.5 | 98.9 ± 4.7 | 99.7 ± 1.3 | 102.6 ± 1.5 | 94.0 ± 1.8 | 90.1 ± 4.1 | 109.0 ± 3.9 | 110.4 ± 1.1 | CC1(C)C(=O)NC(=O)N1CO [MDMH, 1-(Hydroxymethyl)-5,5-dimethylhydantoin] | – | – | – | – | – | – | – | below the quantification limit; also recorded: below quantification limits | 89.78 ± 24.15 |
